# Results from patent US20090155245A1, “Treatment for Organ Regeneration with Combination of Drug and Biologics” (priority 2007, published 2009).
# Entries after “also recorded” stand apart in the source; their conditions may differ.
# Tests used:
# [1] = system: UUO induced renal injury; assay: Unilateral Ureter Obstruction (UUO) model, H&E histology renal injury scoring; type: in vivo, mice (C57BL/6); settings: UUO mice, 12 days of treatment, vs vehicle; rhGDF-5 300 μg/kg ip 3x/week, SD282 60 mg/kg gavage twice daily
# Excerpt: The theraputic effects of rhGDF-5 was further tested along with SD282 in Unilateral Ureter Obstruction Model (UUO) in the present invention. Mice were subjected to unilateral ureter obstruction and treatment started on the same day as the UUO surgery. After 12 days of treatment, the obstructed kidneys were harvested for Hematoxylin and Eosin (H&E) staining and RT-PCR analysis. […] CCL2 induces recruitment of monocytes, T lymphocytes, eosinophils, and basophils and is responsible for many inflammatory reactions to disease, and has been linked to recruitment of osteoclast precursors. PDGF plays a role in embryonic development, cell proliferation, cell migration, and angiogenesis. […] The efficacy of rhGDF-5 was further tested along with SD282 in a mouse UUO model. Treatment started on the same day of the UUO, and included rhGDF-5 and SD282. At the end of the 12-day treatment, histology scoring and gene expression analysis was preformed on endpoint measurements. Unilateral Ureter Obstruction Model (“UUO”) was used because it is a commonly used mouse model for progressive tubulointerstitial fibrosis in the kidney. Male C57BL/6 mice were purchased at age 6 to 8 weeks from Jackson Labs (Bar Harbor, Me.). They were housed in an animal facility that was maintained at 25° C. with a 12-hour light-dark cycle. […]
# [2] = system: 5/6 nephrectomy rats; assay: 5/6 nephrectomy (Nx) rat study of chronic renal failure; type: in vivo, rat (inbred Lewis); settings: 5/6 Nx rats, rhGDF-5 50 μg/kg ip 3 times per week
# Protocol: Both sham and 5/6 Nx performed rats were treated 4 weeks post surgery with different reagents as indicated. The effects of the treatment were analyzed every two weeks through blood and urine sample analysis consisting of hematology, serum and urine chemistry and proteinuria. After 10 weeks of treatment, kidney samples were taken from the right kidney and evaluated using histopathology for glomerulorsclerosis, interstitial fibrosis and tubular degemation. All the data were converted to a weighted ranking system from 1 to 10 and averaged for the 10 weeks. A better efficacy from a treatment receives a higher score and the maximum score is the level for sham group. […]
# rhGDF-5 was administrated 3 times per week at 50 μg/kg by ip. […] Effects of these treatments on kidney function was evaluated every two weeks by monitoring clinical observations, body weights, urine volume and duration of collection, and clinical pathology parameters through blood and urine sample analysis (hematology, serum chemistry, and urine chemistry). Residual urine samples were also evaluated for protein levels, beginning on Day 28, by AniLytics, Inc. On Day 70, surviving animals were euthanized and subjected to a limited necropsy, consisting of collection of the right kidney (2 sham groups) or the remaining third of the right kidney (all the Nx groups). […]
# [3] = system: chemokine ligand 2 (CCL2) gene expression; assay: UUO model, RT-PCR gene expression analysis of obstructed kidney (CCL2); type: in vivo, mice (C57BL/6); settings: UUO mice, 12 days of treatment, vs controls
# Excerpt: (§1) The theraputic effects of rhGDF-5 was further tested along with SD282 in Unilateral Ureter Obstruction Model (UUO) in the present invention. Mice were subjected to unilateral ureter obstruction and treatment started on the same day as the UUO surgery. After 12 days of treatment, the obstructed kidneys were harvested for Hematoxylin and Eosin (H&E) staining and RT-PCR analysis. […] CCL2 induces recruitment of monocytes, T lymphocytes, eosinophils, and basophils and is responsible for many inflammatory reactions to disease, and has been linked to recruitment of osteoclast precursors. PDGF plays a role in embryonic development, cell proliferation, cell migration, and angiogenesis.
# (§2) The efficacy of rhGDF-5 was further tested along with SD282 in a mouse UUO model. Treatment started on the same day of the UUO, and included rhGDF-5 and SD282. At the end of the 12-day treatment, histology scoring and gene expression analysis was preformed on endpoint measurements.
# (§3) Experimental animals were treated with rhGDF-5, 3 times per week, via ip injection at 300 μg/kg and SD282, twice, daily through gavage at 60 mg/kg dissolved in 0.5% methylcellulose. Control mice received an equal volume of 0.5% methylcellulose vehicle. Treatment dose was selected based on a review of the literature and represented the highest dose that was free of side effects in other experimental studies. […]
# [4] = system: diabetic rats; assay: Streptozotocin-induced diabetic nephropathy rat model; type: in vivo; settings: rhGDF-5 300 μg/kg ip 3x per week
# Protocol: The efficacy of the combination therapy was tested in a diabetic nephropathy rat model.
# Diabetic condition in the animals was induced for 1 week by a single i.v. injection of Streptozotocin. Subsequently, the animals were treated for 14 weeks with or without 300 μg/kg rhGDF-5 (i.p., 3× per week), 10 mg/kg of Enalapril (gavage, once daily), or a combination of the two.
# Blood glucose measurements and subcutaneous insulin administrations (as necessary) were carried out thrice weekly to maintain a glucose level between 280 and 400 mg/dL. Urine samples were collected every two weeks; blood samples collected every four weeks for measuring level of urine microalbumin, serum creatinine, blood urea nitrogen, and urine creatinine. On week fourteen, a final set of samples was collected; then the animals were euthanized and subjected to a limited necropsy involving the collection of the kidneys. One kidney from each animal was flash frozen for gene expression analysis as needed and the other preserved in 10% neutral buffered formalin, after which it was examined microscopically.
# Histological examination was performed on the kidneys. […] Slides were evaluated on the basis of morphologic changes according to the following grading scheme: 0=within normal limits; 1=minimal; 2=mild; 3=moderate. All microscopic slides were evaluated and gross and microscopic findings were reported.
# [5] = system: platelet-derived growth factor (PDGF) gene expression; assay: UUO model, RT-PCR gene expression analysis of obstructed kidney (PDGF); type: in vivo, mice (C57BL/6); settings: UUO mice, 12 days of treatment, vs controls
# Excerpt: as §1, §2, §3
substance,measurement,setting,value
"rhGDF-5: recombinant human Growth and Differentiation factor-5, a protein belonging to the TGF-β superfamily (morphogen)","renal injury score (histology scoring, H&E)",[1],reduced renal structural damage; also recorded: reduced renal injury score
same,blood urea nitrogen levels,[2],some effect on reducing blood urea nitrogen levels
same,CCL2 gene expression,[3],decreased expression of CCL2; also recorded: prevents chemokine ligand 2 (CCL2)
same,urine microalbumin / protein level in urine,[4],comparable efficacy on reducing urine micro albumine level; also recorded: comparable effect on reducing protein level in urine
same,PDGF gene expression,[5],decreased expression; also recorded: prevents
